Assay: Preclinical observation on doubled i.p. dose
Format: in vivo
Details: mice; one week of continuing administration
Protocol: Furthermore, the medicament is administered in “a therapeutically effective amount,” i.e., in a single dose or in multiple, divided subdoses at a suitable interval, e.g., two, three or more subdoses over a day or another appropriate schedule, to a prescribed total amount of active, such that metastasis is inhibited in the subject. Like the dose schedule, the effective amount of medicament will depend on a variety of factors, including the age and condition of the subject, the nature and extent of the cancerous condition, any contraindications, and the pharmacokinetic and pharmacodynamic characteristics of the medicament. For example, based on an accepted guide to animal-to-human dose conversion, see Nair R. Jacob, J. Basic. Clin. Pharm.

COC1C(O)CC(=O)OC(C)CC=CC=CC(OC2CCC(N(C)C)C(C)O2)C(C)CC(CC=O)C1OC1OC(C)C(OC2CC(C)(O)C(OC(=O)CC(C)C)C(C)O2)C(N(C)C)C1O (stereo not shown) [ISP I, 4″-isolvalerylspiramycin I]
adverse effect on doubling of the i.p. dose: severe diarrhea
